Source: the NIST ThermoML archive (doi:10.1016/j.jct.2010.05.002)

Assay: molar heat capacity at constant pressure
Conditions: 101.33 kPa, Crystal, Vacuum adiabatic calorimetry

CC(C)(C)c1ccc(-c2ccccc2)cc1 [4-(1,1-dimethylethyl)-1,1'-biphenyl]
Conditions	molar heat capacity at constant pressure [J/K/mol]
68.76 K	79.62
69.49 K	80.06
70.22 K	80.55
71.11 K	81.26
72.16 K	81.97
73.2 K	83.77
74.24 K	85.78
75.29 K	87.62
76.33 K	89.61
77.37 K	91.7
78.41 K	93.86
78.6 K	93.38
79.46 K	95.29
79.89 K	95.59
80.5 K	96.68
80.92 K	97.16
81.55 K	97.38
81.96 K	98.92
82.59 K	99.16
82.99 K	99.71
83.63 K	100.81
84.02 K	101.38
84.67 K	102.6
85.05 K	103.37
85.71 K	104.76
86.08 K	105.1
87.11 K	107.71
88.14 K	109.06
89.18 K	109.08
90.21 K	110.43
91.24 K	111.94
92.26 K	112.49
93.29 K	113.67
94.32 K	115.2
95.34 K	116.2
96.36 K	117.24
97.39 K	117.75
98.41 K	119.69
99.44 K	121.4
100.46 K	120.13
101.48 K	122.02
102.5 K	123.38
103.53 K	123.38
104.55 K	124.78
105.57 K	125.7
106.59 K	125.94
107.6 K	126.55
108.62 K	127.46
109.63 K	129.07
110.65 K	130.3
111.66 K	130.29
112.67 K	130.99
113.68 K	131.82
114.69 K	132.86
115.71 K	133.48
116.72 K	133.98
117.73 K	134.55
118.74 K	135.11
119.75 K	136.16
120.76 K	136.83
121.76 K	137.18
122.77 K	138
123.77 K	138.81
124.78 K	139.92
125.78 K	140.34
126.79 K	141.2
127.78 K	141.96
128.78 K	142.63
129.78 K	143.1
130.78 K	144.73
131.78 K	145.34
132.78 K	145.71
133.78 K	146.29
134.78 K	147.05
135.77 K	147.52
136.77 K	148.34
137.77 K	149.37
138.76 K	149.38
139.75 K	150.91
140.74 K	152.15
141.74 K	153
142.73 K	153.45
143.7 K	153.84
144.69 K	154.76
145.68 K	154.88
146.67 K	155.86
147.65 K	157.44
148.64 K	158.13
149.63 K	159.37
150.61 K	159.11
151.59 K	161.68
152.58 K	161.75
153.56 K	162.27
154.54 K	162.57
155.52 K	163.19
